Test results taken from US10729130B2, “Nematicidal compositions and methods of using them” (Eden Research plc, priority 2004, dated 2020).
Where “and” joins values, the source holds several entries; their conditions need not be identical. Equal values may be shown once.

Tests used:
[1] = system: root-knot juveniles; assay: Effect of citral alone and citral and thymol on root-knot nematode juveniles; type: in vivo; details: average of 2 replicates
Procedure: This was labelled 2500 ppm and was diluted to provide test solutions at 500, 250, 125 and 62.5 ppm.
This was marked 2500 ppm and diluted to provide test solutions at 500, 250, 125 and 62.5 ppm.
Control—Water was used as the control.
Nematode juveniles were collected in water and 0.1 to 0.15 ml added to each well of a plastic assay plate. 1.0 ml of the test solutions was added to each well. Observations were made microscopically after 24 and 48 hours as described in Example 4. […] Living nematodes move in an undulating, wave-like motion.
The results of two experiments are provided below in Tables 7 and 8.

[2] = system: root-knot nematodes; assay: Effect of pH on the nematicidal activity of citral (fresh and one-day old solutions); type: in vivo, root-knot nematode
Procedure: Test solutions of these three concentrations were prepared at different pHs by adjusting the pH with HCl or NaOH to pH 4, 7 and 10.
One batch of test solutions was used immediately and another was left for 24 hours before use. The method of administration to the nematodes and counting the kill rate is the same as for previous protocols.
The results are shown below in Tables 11 and 12.

[3] = system: root-knot nematodes; assay: Nematicidal activity of citral on root-knot nematodes (selectivity experiment); details: 250 ppm
Excerpt: (§1) Living saprophagus nematodes move rapidly in water. The control used was the nematodes in water alone.
(§2) The figures given are for the percentage of nematodes found to be dead upon microscopic examination and are the average of 2 replicates.

[4] = system: Saprophagous nematodes; assay: Nematicidal activity of citral on Saprophagous nematodes (selectivity experiment); details: 250 ppm
Excerpt: as §1, §2

[5] = Loading of terpenes (L-carvone) into SAF Mannan in minimal water (free terpene, flow); type: physicochemical; parameters: key to Free Terpene: +: “free terpene” refers to the visible presence of terpene in the centrifuged reaction mixture; −: The absence of free terpene indicates complete absorption of the terpene by the particles; key to Flow: Sl = slight; details: emulsion 4.64 g; for Flow: flow in inverted tubes over 15 minutes
Procedure: The following protocol was carried out to evaluate the possibility that terpene loading and encapsulation into YP could be carried out at a very high Yeast Particles (YP) solids level to allow for direct extrusion of the loaded formulation into a fluidised bed drier. The minimal amount of water to completely hydrate the SAF Mannan™ particles was determined to be 3.53 g water per g solids. This defines the hydrodynamic volume (HV) or water absorptive capacity of the particles. At this level of water the hydrated particles have a consistency of a stiff dough which is thixotropic, i.e. shear thinning like mayonnaise. Addition of water up to 40% above the HV results in a thick flowable paste. The standard reaction that has been used in the above examples was carried out at 3×HV water.
. Controls were the standard loading system which uses 3×HV water, particles only and terpene only reactions. Following overnight incubation samples of the mixtures were evaluated microscopically for free terpene and evidence of terpene uptake into the particles and for material flow characteristics by assessing flow in inverted tubes over 15 minutes. In addition, the presence of free oil was assessed by hydrating the reaction mixture with 5×HV, vortexing to obtain a complete dispersion of particles and centrifugation to sediment the particle encapsulated terpene. FIGS. 7 to 12 show the loading results of the following tubes: • FIG. 7—Tube 3 • FIG. 8—Tube 5 • FIG. 9—Tube 6 • FIG. 10—Tube 8 • FIG. 11—Tube 10 • FIG. 12—Tube 11

[6] = Xanthan gum as interstitial hydrocolloid: dispersion of dried encapsulated L-carvone particles when re-hydrated; type: physicochemical; details: dispersion on re-hydration, SAF 1 g, L-carvone emulsion 1.1 g
Procedure: The following protocol was adopted to evaluate the effect of an interstitial hydrocolloid to increase dried hollow glucan particle encapsulated terpene formulations to disperse when hydrated. • SAF Mannan™ particles • 0.1% Tween 80 • L-carvone • Xanthan Gum—1% w/v in 0.1% Tween 80
The effect of increasing xanthan gum levels on dry hollow glucan particle encapsulated L-carvone dispersion in water was assessed by loading L-carvone into SAF Mannan by incubating 1.1 g of an L-carvone emulsion (L-carvone:water:surfactant ratio of 0.75:0.3:0.05) with 1 g SAF Mannan and 4.4 g 0.1% Tween 80 containing 0-1% xanthan gum as shown in Table 32.

CC(C)=CCCC(C)=CC=O [Citral, citral]
percentage of nematodes dead ([1]; Table 7 experiment, 125 ppm, 24 h): 100% | percentage of nematodes dead ([1]; Table 7 experiment, 125 ppm, 48 h): 24% | percentage of nematodes dead ([1]; Table 7 experiment, 250 ppm, 24 h): 100% | percentage of nematodes dead ([1]; Table 7 experiment, 250 ppm, 48 h): 91% | percentage of nematodes dead ([1]; Table 7 experiment, 500 ppm, 24 h): 98% | percentage of nematodes dead ([1]; Table 7 experiment, 500 ppm, 48 h): 97% | percentage of nematodes dead ([1]; Table 8 experiment, 62.5 ppm, 24 h): 98% | percentage of nematodes dead ([1]; Table 8 experiment, 125 ppm, 24 h): 94% | percentage of nematodes dead ([1]; Table 8 experiment, 250 ppm, 24 h): 94% | % nematodes dead ([2]; fresh citral, 62.5 ppm, pH 4, 24 h): 48% | % nematodes dead ([2]; fresh citral, 62.5 ppm, pH 4, 48 h): 50% | % nematodes dead ([2]; fresh citral, 62.5 ppm, pH 7, 24 h): 39% | % nematodes dead ([2]; fresh citral, 62.5 ppm, pH 7, 48 h): 44% | % nematodes dead ([2]; fresh citral, 62.5 ppm, pH 10, 24 h): 32% | % nematodes dead ([2]; fresh citral, 62.5 ppm, pH 10, 48 h): 45% | % nematodes dead ([2]; fresh citral, 125 ppm, pH 4, 24 h): 31% | % nematodes dead ([2]; fresh citral, 125 ppm, pH 4, 48 h): 50% | % nematodes dead ([2]; fresh citral, 125 ppm, pH 7, 24 h): 44% | % nematodes dead ([2]; fresh citral, 125 ppm, pH 7, 48 h): 47% | % nematodes dead ([2]; fresh citral, 125 ppm, pH 10, 24 h): 39% | % nematodes dead ([2]; fresh citral, 125 ppm, pH 10, 48 h): 39% | % nematodes dead ([2]; fresh citral, 250 ppm, pH 4, 24 h): 75% | % nematodes dead ([2]; fresh citral, 250 ppm, pH 4, 48 h): 73% | % nematodes dead ([2]; fresh citral, 250 ppm, pH 7, 24 h): 73% | % nematodes dead ([2]; fresh citral, 250 ppm, pH 7, 48 h): 72% | % nematodes dead ([2]; fresh citral, 250 ppm, pH 10, 24 h): 83% | % nematodes dead ([2]; fresh citral, 250 ppm, pH 10, 48 h): 87% | % nematodes dead ([2]; one-day old citral, 62.5 ppm, pH 4, 24 h): 40% | % nematodes dead ([2]; one-day old citral, 62.5 ppm, pH 4, 48 h): 27% | % nematodes dead ([2]; one-day old citral, 62.5 ppm, pH 7, 24 h): 30% | % nematodes dead ([2]; one-day old citral, 62.5 ppm, pH 7, 48 h): 27% | % nematodes dead ([2]; one-day old citral, 62.5 ppm, pH 10, 24 h): 16% | % nematodes dead ([2]; one-day old citral, 62.5 ppm, pH 10, 48 h): 21% | % nematodes dead ([2]; one-day old citral, 125 ppm, pH 4, 24 h): 27% | % nematodes dead ([2]; one-day old citral, 125 ppm, pH 4, 48 h): 31% | % nematodes dead ([2]; one-day old citral, 125 ppm, pH 7, 24 h): 25% | % nematodes dead ([2]; one-day old citral, 125 ppm, pH 7, 48 h): 33% | % nematodes dead ([2]; one-day old citral, 125 ppm, pH 10, 24 h): 25% | % nematodes dead ([2]; one-day old citral, 125 ppm, pH 10, 48 h): 32% | % nematodes dead ([2]; one-day old citral, 250 ppm, pH 4, 24 h): 90% | % nematodes dead ([2]; one-day old citral, 250 ppm, pH 4, 48 h): 90% | % nematodes dead ([2]; one-day old citral, 250 ppm, pH 7, 24 h): 40% | % nematodes dead ([2]; one-day old citral, 250 ppm, pH 7, 48 h): 33% | % nematodes dead ([2]; one-day old citral, 250 ppm, pH 10, 24 h): 47% | % nematodes dead ([2]; one-day old citral, 250 ppm, pH 10, 48 h): 52% | % dead ([3]; 24 h): 87% and 88% | % dead ([3]; 48 h): 100% | % dead ([4]; 24 h): 43% and 50% | % dead ([4]; 48 h): 50% and 52%

L-carvone
Free Terpene ([5]; Tube 1: terpene only control, no SAF, water 4.5 g): + | Free Terpene ([5]; Tube 3: SAF 1 g, water 4.5 g (standard loading, 3×HV)): − | Free Terpene ([5]; Tube 4: SAF 1 g, water —): − | Free Terpene ([5]; Tube 5: SAF 1 g, water 0.17 g): − | Free Terpene ([5]; Tube 6: SAF 1 g, water 0.35 g): − | Free Terpene ([5]; Tube 7: SAF 1 g, water 0.52 g): − | Free Terpene ([5]; Tube 8: SAF 1 g, water 0.7 g): − | Free Terpene ([5]; Tube 9: SAF 1 g, water 0.87 g): − | Free Terpene ([5]; Tube 10: SAF 1 g, water 1.05 g): − | Free Terpene ([5]; Tube 11: SAF 1 g, water 1.39 g): − | Flow ([5]; Tube 7: SAF 1 g, water 0.52 g): Sl | Flow ([5]; Tube 8: SAF 1 g, water 0.7 g): Mod | Flow ([5]; Tube 9: SAF 1 g, water 0.87 g): High | Flow ([5]; Tube 10: SAF 1 g, water 1.05 g): High | Flow ([5]; Tube 11: SAF 1 g, water 1.39 g): High | Visual Observations ([6]; 0.1% Tween-80 0 g, 1% xanthan 4.4 g): Finer Uniform | Visual Observations ([6]; 0.1% Tween-80 2.2 g, 1% xanthan 2.2 g): Finer Uniform | Visual Observations ([6]; 0.1% Tween-80 3.3 g, 1% xanthan 1.1 g): Finer Uniform | Visual Observations ([6]; 0.1% Tween-80 3.85 g, 1% xanthan 0.55 g): Uniform | Visual Observations ([6]; 0.1% Tween-80 4.12 g, 1% xanthan 0.28 g): Uniform | Visual Observations ([6]; 0.1% Tween-80 4.26 g, 1% xanthan 0.14 g): Uniform | Visual Observations ([6]; 0.1% Tween-80 4.33 g, 1% xanthan 0.07 g): Uniform | Visual Observations ([6]; 0.1% Tween-80 4.4 g, 1% xanthan 0 g): Large non-
